This assay has as its target PIK3CD (Human) (UniProt O00329). The assay can be described thus: Assessment of PIK3CD Kinase Activity.

Where “and” joins values, the source holds several entries; their conditions need not be identical. Identical values can stand only once.

By IC50 is commonly meant the concentration that gives 50% inhibition. Read a high IC50 as weaker potency.

Sequence of PIK3CD (Human) (O00329 whole entry, looked up): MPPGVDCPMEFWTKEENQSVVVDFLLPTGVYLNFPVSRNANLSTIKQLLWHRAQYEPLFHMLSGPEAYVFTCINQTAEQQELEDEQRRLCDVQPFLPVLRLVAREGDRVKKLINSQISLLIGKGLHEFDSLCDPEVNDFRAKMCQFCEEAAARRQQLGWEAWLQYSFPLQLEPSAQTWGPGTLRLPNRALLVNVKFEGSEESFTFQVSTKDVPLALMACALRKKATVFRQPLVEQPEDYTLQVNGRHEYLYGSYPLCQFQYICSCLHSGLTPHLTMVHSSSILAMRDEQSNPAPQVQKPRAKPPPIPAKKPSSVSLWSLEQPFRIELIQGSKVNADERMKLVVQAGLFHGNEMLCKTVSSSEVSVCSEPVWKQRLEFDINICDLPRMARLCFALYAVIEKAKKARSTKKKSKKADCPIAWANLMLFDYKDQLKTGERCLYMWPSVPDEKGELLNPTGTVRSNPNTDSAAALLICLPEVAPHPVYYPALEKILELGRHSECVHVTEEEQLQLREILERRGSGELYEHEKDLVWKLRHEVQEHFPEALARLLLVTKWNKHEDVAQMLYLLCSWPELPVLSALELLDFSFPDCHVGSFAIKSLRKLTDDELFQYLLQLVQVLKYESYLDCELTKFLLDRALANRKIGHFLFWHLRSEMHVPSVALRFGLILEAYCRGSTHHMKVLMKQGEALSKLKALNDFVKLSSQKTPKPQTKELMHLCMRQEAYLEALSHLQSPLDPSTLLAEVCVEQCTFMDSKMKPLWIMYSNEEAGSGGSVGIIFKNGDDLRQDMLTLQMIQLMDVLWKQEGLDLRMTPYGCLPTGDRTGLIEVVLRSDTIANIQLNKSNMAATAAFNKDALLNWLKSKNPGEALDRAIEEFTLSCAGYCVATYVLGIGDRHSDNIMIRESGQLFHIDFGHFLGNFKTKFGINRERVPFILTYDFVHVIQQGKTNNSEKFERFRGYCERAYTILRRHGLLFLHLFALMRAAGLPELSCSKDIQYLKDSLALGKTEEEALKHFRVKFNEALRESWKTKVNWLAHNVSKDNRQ

On to `COC1CCN(c2c(C(C)Nc3ncnc4[nH]cnc34)cc(Cl)c3cccnc23)C1` (stereo not given), for which the IC50 is < 50 nM and 50 to 100 nM.
Then `CC(Nc1ncnc2[nH]cnc12)c1nc(C#N)c2ccccc2c1-c1cccc(F)c1` (stereo not given), with 50 to 100 nM.
Next, `CC(Nc1ncnc2[nH]cnc12)c1cc(Cl)c2cccnc2c1N1CCN(C(=O)C2CC2)CC1` (stereo not given): < 50 nM; `CC(Nc1ncnc2[nH]cnc12)c1cc(Cl)c2cccnc2c1N1CCC(N2CCCCC2)CC1` (stereo not given): 50 to 100 nM.
Then `CC(Nc1ncnc2[nH]cnc12)c1cc(Cl)c2cccnc2c1N1CCC(NS(C)(=O)=O)CC1` (stereo not given), with 100 to 250 nM; and `Cc1noc(C)c1C(=O)N1CCN(c2c(C(C)Nc3ncnc4[nH]cnc34)cc(Cl)c3cccnc23)CC1` (stereo not given), with < 50 nM.
For the molecule `CC(Nc1ncnc2[nH]cnc12)c1cc(Cl)c2ccnnc2c1-c1ccccc1F` (stereo not given), the IC50 is < 50 nM and 50 to 100 nM and 250 to 500 nM.
With `CC(Nc1ncnc2[nH]cnc12)c1cc(Cl)c2cnn(C)c2c1-c1cc(F)cc(F)c1` (stereo not given), the IC50 is < 50 nM.
Next, `CC(Nc1ncnc2[nH]cnc12)c1cc(Cl)c2cccnc2c1N1CCC[C@H](O)C1` (stereo not given in full): < 50 nM; `CC(Nc1ncnc2[nH]cnc12)c1cc(F)c2cccnc2c1N1CC[C@@H](O)C1` (stereo not given in full): 100 to 250 nM; `CC(Nc1ncnc2[nH]cnc12)c1cc(Cl)c2ccnnc2c1-c1ccnc(F)c1` (stereo not given): 500 to 1000 nM.
Next, `Cc1cc(C(C)Nc2ncnc3[nH]cnc23)c(-c2cc(F)cc(F)c2)c2nnccc12` (stereo not given): < 50 nM.
Then `CC(Nc1nc(N)nc2[nH]cnc12)c1ccc2ccccc2c1-c1cncc(F)c1` (stereo not given), with < 50 nM; and `CC(Nc1ncnc2[nH]cnc12)c1cc(F)c2ccnnc2c1-c1cccc(F)c1` (stereo not given), with 100 to 250 nM and < 50 nM; and `CC(Nc1ncnc2[nH]cnc12)c1ccc2cccnc2c1-c1ccccc1F` (stereo not given), with 500 to 1000 nM.
For `CC(Nc1ncnc2[nH]cnc12)c1cc(Cl)c2cccnc2c1N1CCN(C(=O)c2cccnc2)CC1` (stereo not given), the 50% inhibitory concentration (IC50) is < 50 nM.
Molecule `CC(Nc1ncnc2[nH]cnc12)c1cc(Cl)c2ccnnc2c1-c1cncc(F)c1` (stereo not given) showed an IC50 of 50 to 100 nM.
Next, `CC(=O)N[C@H]1CCN(c2c(C(C)Nc3ncnc4[nH]cnc34)cc(Cl)c3cccnc23)C1` (stereo not given in full): < 50 nM; `COC(=O)N1CCN(c2c(C(C)Nc3ncnc4[nH]cnc34)cc(Cl)c3cccnc23)CC1` (stereo not given): < 50 nM.
For `CC(Nc1ncnc2[nH]cnc12)c1cc(F)c2cccnc2c1N1CCN(C(=O)c2cnn(C)c2)CC1` (stereo not given), the IC50 is < 50 nM.
Next, `CC(Nc1ncnc2[nH]cnc12)c1cc(Cl)c2cccnc2c1N1CCC(F)CC1` (stereo not given): 100 to 250 nM.
Molecule `CC(Nc1ncnc2[nH]cnc12)c1cc(Cl)c2cccnc2c1N1CCC(C#N)C1` (stereo not given) yielded an IC50 of 100 to 250 nM.
Next, `CC(Nc1ncnc2[nH]cnc12)c1cc(Cl)c2ccccc2c1-c1cccc(F)c1` (stereo not given): 100 to 250 nM; `CC(Nc1ncnc2[nH]cnc12)c1cc(Cl)c2ccncc2c1-c1cccc(F)c1` (stereo not given): < 50 nM; `CCC(Nc1ncnc2[nH]cnc12)c1cc(Cl)c2ccnnc2c1-c1cccc(F)c1` (stereo not given): < 50 nM.
Next, `CCc1cc(C(C)Nc2ncnc3[nH]cnc23)c(-c2cccc(F)c2)c2ncccc12` (stereo not given): 50 to 100 nM; `CC(Nc1ncnc2[nH]cnc12)c1cc(Cl)c2cccnc2c1N1CCN(C(=O)c2ccccn2)CC1` (stereo not given): < 50 nM.
Next, `CC(=O)NC1CCN(c2c(C(C)Nc3ncnc4[nH]cnc34)cc(Cl)c3cccnc23)CC1` (stereo not given): < 50 nM; `Cc1cc(C(C)Nc2ncnc3[nH]cnc23)c(-c2cccc(F)c2)c2nnccc12` (stereo not given): < 50 nM and 500 to 1000 nM.
The molecule `CC(Nc1ncnc2[nH]cnc12)c1ccc2cccnc2c1-c1cncc(F)c1` (stereo not given) returned an IC50 of 500 to 1000 nM.
Take `CC(Nc1ncnc2[nH]cnc12)c1cc(Cl)c2ccncc2c1N1CC[C@H](F)C1` (stereo not given in full): the IC50 was 250 to 500 nM.
Then `CC(Nc1ncnc2[nH]cnc12)c1cc(Cl)c2cccnc2c1N1CCN(C(=O)c2ccc(F)cc2)CC1` (stereo not given), with 100 to 250 nM.
`CC(Nc1nc(N)nc2[nH]cnc12)c1ccc2ccccc2c1-c1cccc(F)c1` (stereo not given) yielded an IC50 of 500 to 1000 nM.
Next, `CC(Nc1ncnc2[nH]cnc12)c1cc(Cl)c2ccnnc2c1-c1cc(F)cc(F)c1` (stereo not given): < 50 nM.
Then `CC(Nc1ncnc2[nH]cnc12)c1cc(Cl)c2cccnc2c1N1CCN(C(=O)C2CCC2)CC1` (stereo not given), with < 50 nM; and `CC(Nc1ncnc2[nH]cnc12)c1cc(Cl)c2cccnc2c1N1CCN(C(=O)N(C)C)CC1` (stereo not given), with < 50 nM; and `CC(Nc1ncnc2[nH]cnc12)c1cc(Cl)c2cccnc2c1N1CCN(Cc2ccncc2)CC1` (stereo not given), with < 50 nM.
Next, `CC(Nc1ncnc2[nH]cnc12)c1cc(Cl)c2cccnc2c1N1CCC(CCO)CC1` (stereo not given): 100 to 250 nM; `CCC(=O)N[C@H]1CCN(c2c(C(C)Nc3ncnc4[nH]cnc34)cc(Cl)c3cccnc23)C1` (stereo not given in full): < 50 nM.
For `CC(Nc1ncnc2[nH]cnc12)c1cc(F)c2cccnc2c1N1CCN(C2CCC2)CC1` (stereo not given), the IC50 is < 50 nM.
Next, `CC(Nc1ncnc2[nH]cnc12)c1cc(Cl)c2cccnc2c1N1CCCC(CO)C1` (stereo not given): 100 to 250 nM; `CC(Nc1ncnc2[nH]cnc12)c1cc(Cl)c2cccnc2c1N1CCN(CCO)CC1` (stereo not given): < 50 nM.
Then `CC(Nc1ncnc2[nH]cnc12)c1cc(C#N)c2cccnc2c1-c1cccc(F)c1` (stereo not given), with 50 to 100 nM; and `CC(Nc1ncnc2[nH]cnc12)c1cc(Cl)c2cccnc2c1N1CCN(CC(=O)N(C)C)CC1` (stereo not given), with < 50 nM.
Next, `CC(Nc1ncnc2[nH]cnc12)c1cc(Cl)c2cccnc2c1N1CCN(C2CCC2)CC1` (stereo not given): < 50 nM.
`CC(Nc1ncnc2[nH]cnc12)c1cc(Cl)c2cccnc2c1-c1cccc(F)c1` (stereo not given): the IC50 was < 50 nM.
Then `CC(Nc1ncnc2[nH]cnc12)c1cc(Cl)c2cccnc2c1N1CCN(C(=O)c2cccc(F)c2)CC1` (stereo not given), with 100 to 250 nM; and `CC(Nc1ncnc2[nH]cnc12)c1cc(Cl)c2cccnc2c1N1CCC(O)CC1` (stereo not given), with < 50 nM.
Then `CC(Nc1ncnc2[nH]cnc12)c1cc(Cl)c2cccnc2c1N1CC[C@H](NS(C)(=O)=O)C1` (stereo not given in full), with 250 to 500 nM and < 50 nM; and `COc1ccc(-c2c(C(C)Nc3ncnc4[nH]cnc34)cc(Cl)c3ccnnc23)cc1F` (stereo not given), with 500 to 1000 nM.
On to `COC(=O)N[C@H]1CCN(c2c(C(C)Nc3ncnc4[nH]cnc34)cc(Cl)c3cccnc23)C1` (stereo not given in full), for which the IC50 was 50 to 100 nM and < 50 nM.
Then `CC(Nc1ncnc2[nH]cnc12)c1cc(Cl)c2cccnc2c1N1CC[C@@H](O)C1` (stereo not given in full), with < 50 nM.
As for `Cc1cc(C(C)Nc2ncnc3[nH]cnc23)c(-c2cccc(F)c2)c2ncccc12` (stereo not given), the IC50 was 100 to 250 nM.
As to `COC1CCCN(c2c(C(C)Nc3ncnc4[nH]cnc34)cc(Cl)c3cccnc23)C1` (stereo not given), the IC50 was 250 to 500 nM and 100 to 250 nM.
Next, `CC(Nc1ncnc2[nH]cnc12)c1cc(F)c2ccnnc2c1-c1cc(F)cc(F)c1` (stereo not given): 100 to 250 nM; `CC(Nc1ncnc2[nH]cnc12)c1cc(Cl)c2cccnc2c1N1CCN(C2CC2)CC1` (stereo not given): < 50 nM.
Next, `CC(Nc1ncnc2[nH]cnc12)c1cc(Cl)c2cccnc2c1N1CCN(C2CCCCC2)CC1` (stereo not given): 50 to 100 nM; `CC(Nc1ncnc2[nH]cnc12)c1cc(Cl)c2cccnc2c1N1CCC(C#N)CC1` (stereo not given): 100 to 250 nM; `CC(Nc1ncnc2[nH]cnc12)c1ccc2cccnc2c1-c1cccc(F)c1` (stereo not given): 250 to 500 nM.
Next, `CC(Nc1ncnc2[nH]cnc12)c1cc(Cl)c2cccnc2c1N1CCN(C(=O)c2ccncc2)CC1` (stereo not given): < 50 nM.
For the molecule `CC(Nc1ncnc2[nH]cnc12)c1cc(Cl)c2conc2c1-c1cccc(F)c1` (stereo not given), the IC50 was < 50 nM.
Then `CC(=O)N1CCC(C(=O)N2CCN(c3c(C(C)Nc4ncnc5[nH]cnc45)cc(Cl)c4cccnc34)CC2)CC1` (stereo not given), with < 50 nM; and `CC(C)C(=O)N[C@H]1CCN(c2c(C(C)Nc3ncnc4[nH]cnc34)cc(Cl)c3cccnc23)C1` (stereo not given in full), with < 50 nM.
Next, `COCCN1CCN(c2c(C(C)Nc3ncnc4[nH]cnc34)cc(Cl)c3cccnc23)CC1` (stereo not given): < 50 nM; `CC(Nc1ncnc2[nH]cnc12)c1ccc2cccnc2c1-c1cc(F)cc(F)c1` (stereo not given): 500 to 1000 nM.
Consider `CC(Nc1nc(N)nc2[nH]cnc12)c1cc(F)c2ccnnc2c1-c1cccc(F)c1` (stereo not given), for which the IC50 is < 50 nM.
Then `Cc1cc(C(=O)N2CCN(c3c(C(C)Nc4ncnc5[nH]cnc45)cc(Cl)c4cccnc34)CC2)no1` (stereo not given), with < 50 nM; and `CC(Nc1ncnc2[nH]cnc12)c1ccc2ccccc2c1-c1cccc(F)c1` (stereo not given), with 100 to 250 nM.
Take `CC(Nc1ncnc2[nH]cnc12)c1cc(Cl)c2cccnc2c1N1CCN(C(=O)c2cnccn2)CC1` (stereo not given): the IC50 is < 50 nM.
Then `COC(=O)NC1CCN(c2c(C(C)Nc3ncnc4[nH]cnc34)cc(Cl)c3cccnc23)CC1` (stereo not given), with < 50 nM.
Next, `CC(Nc1ncnc2[nH]cnc12)c1cc(Cl)c2cn[nH]c2c1-c1cccc(F)c1` (stereo not given): < 50 nM.
Then `C[C@H](Nc1ncnc2[nH]cnc12)c1cc(F)c2cccnc2c1-c1cccc(F)c1`, with < 50 nM; and `CC(Nc1ncnc2[nH]cnc12)c1cc(Cl)c2cccnc2c1N1CCCC(F)C1` (stereo not given), with 250 to 500 nM.
`CC(Nc1ncnc2[nH]cnc12)c1cc(Cl)c2cccnc2c1N1CCC(CO)CC1` (stereo not given) came in with a concentration for half-maximal inhibition (IC50) of 100 to 250 nM.
Then `CC(Nc1ncnc2[nH]cnc12)c1cc(Cl)c2cccnc2c1N1CCN(C(=O)c2ccn(C)n2)CC1` (stereo not given), with < 50 nM; and `CC(Nc1ncnc2[nH]cnc12)c1ccc2ccccc2c1-c1cncc(F)c1` (stereo not given), with < 50 nM; and `CC(Nc1ncnc2[nH]cnc12)c1cc(Cl)c2ccccc2c1N1CCC(O)CC1` (stereo not given), with < 50 nM.
`CC(Nc1ncnc2[nH]cnc12)c1cc(Cl)c2cccnc2c1N1CCC(F)(F)CC1` (stereo not given) registered a half-inhibitory concentration (IC50) of 500 to 1000 nM.
The molecule `CC(Nc1ncnc2[nH]cnc12)c1cc(Cl)c2cccnc2c1N1CCN(C(=O)c2ccccc2)CC1` (stereo not given) registered a concentration for half-maximal inhibition (IC50) of 50 to 100 nM.
Molecule `Fc1cccc(-c2c(CNc3ncnc4[nH]cnc34)cc(Cl)c3ccnnc23)c1` displayed an IC50 of 500 to 1000 nM.
Next, `CC(Nc1ncnc2[nH]cnc12)c1cc(Cl)c2cccnc2c1N1CCN(C(=O)c2ccccc2F)CC1` (stereo not given): 250 to 500 nM; `COC[C@H]1CCCN1c1c(C(C)Nc2ncnc3[nH]cnc23)cc(Cl)c2cccnc12` (stereo not given in full): 100 to 250 nM.
Take `C[C@@H](Nc1ncnc2[nH]cnc12)c1cc(F)c2cccnc2c1-c1cccc(F)c1`: the half-inhibitory concentration (IC50) was < 50 nM.
Then `COC1CCN(c2c(C(C)Nc3ncnc4[nH]cnc34)cc(Cl)c3cccnc23)CC1` (stereo not given), with 50 to 100 nM.
Next, `CC(Nc1ncnc2[nH]cnc12)c1cc(Cl)c2cn[nH]c2c1-c1cc(F)cc(F)c1` (stereo not given): < 50 nM.

Source of the values: the Kinase Knowledgebase extract (Sharma et al. 2016).
